According to patent US20110098352A1, “N,N-DISUBSTITUTED AMINOALKYLBIPHENYL ANTAGONISTS OF PROSTAGLANDIN D2 RECEPTORS” (AMIRA PHARMACEUTICALS, INC., priority 2008, published 2011):
pIC50: −log10 of the molar value.

How the values were obtained:
human DP1 receptor = molecular target: T1, human DP1 receptor (Homo sapiens, UniProt Q13258); assay: DP1 radioligand membrane binding assay using [3H]BWA868C; conditions: [3H]BWA868C binding, human platelet membranes; read-out: hDP1
T1 construct: tissue Biological Specialty Corporation; host or cells: human platelets, membranes
T1 sequence (Q13258 1-359): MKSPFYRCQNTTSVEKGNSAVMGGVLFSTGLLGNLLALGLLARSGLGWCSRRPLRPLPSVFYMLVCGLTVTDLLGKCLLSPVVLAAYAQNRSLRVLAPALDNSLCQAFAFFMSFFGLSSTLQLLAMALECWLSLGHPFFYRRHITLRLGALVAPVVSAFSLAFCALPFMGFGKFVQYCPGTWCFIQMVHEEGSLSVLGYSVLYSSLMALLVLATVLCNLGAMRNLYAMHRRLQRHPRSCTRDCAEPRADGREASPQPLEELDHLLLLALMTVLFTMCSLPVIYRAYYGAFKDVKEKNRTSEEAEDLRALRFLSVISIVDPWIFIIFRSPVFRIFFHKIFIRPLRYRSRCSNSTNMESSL
Description: The ability of a compound to bind to the human DP1 receptor was evaluated via a radioligand membrane binding assay using the DP1 selective synthetic ligand [^3H]BWA868C. Packed human platelets (Biological Specialty Corporation), were resuspended in 6 volumes of Hepes/HBSS buffer (10 mM Hepes, 1 mM DTT in Hanks Balanced Salt Solution (HBSS)), lysed and centrifuged at 75,000×g to pellet the membranes. Membranes were resuspended in Hepes/HBSS buffer to approximately 12 mg protein/ml. Membranes (20 μg protein/well) are incubated in 96-well plates with 2 nM [^3H]BWA868C and test compound in Assay Buffer (50 mM Hepes, 10 mM MnCl2, 1 mM EDTA, plus or minus 0.2% human serum albumin, pH 7.4) for 60 minutes at room temperature. The reactions are terminated by rapid filtration through Whatman GF/C glass fibre filter plates. The filter plates were pre-soaked in […] polethylenimine for 30 minutes at room temperature then washed in Wash Buffer (50 mM Hepes, 0.5 M NaCl pH 7.4) prior to harvesting. After harvesting, the filter plates are washed 3 times with 1 ml cold Wash Buffer then dried. Scintillant is then added to the plates and the radioactivity retained on the filters is determined on a Packard TopCount (Perkin Elmer). Specific binding is determined as total radioactive binding minus non-specific binding in the presence of 10 μM BWA868C. IC50s were determined using GraphPad prism analysis of drug titration curves.

human DP2 receptor = molecular target: T2, human DP2 receptor (Homo sapiens, UniProt Q9Y5Y4); assay: DP2/CRTH2 radioligand binding assay using [3H]PGD2; conditions: [3H]PGD2 binding, membranes of HEK293 cells expressing recombinant human DP2; read-out: hDP2
T2 construct: expressed in transfected cells
T2 sequence (Q9Y5Y4 1-395): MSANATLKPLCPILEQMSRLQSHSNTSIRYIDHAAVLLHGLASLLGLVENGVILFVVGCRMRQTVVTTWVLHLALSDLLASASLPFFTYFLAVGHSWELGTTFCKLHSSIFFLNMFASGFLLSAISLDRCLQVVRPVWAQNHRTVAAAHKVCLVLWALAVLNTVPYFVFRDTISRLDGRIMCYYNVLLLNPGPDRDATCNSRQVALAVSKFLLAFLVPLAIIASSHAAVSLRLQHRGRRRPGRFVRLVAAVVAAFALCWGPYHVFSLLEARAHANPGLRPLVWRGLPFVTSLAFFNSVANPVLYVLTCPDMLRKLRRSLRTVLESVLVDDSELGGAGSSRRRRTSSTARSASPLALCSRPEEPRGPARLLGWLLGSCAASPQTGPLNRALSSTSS
Description: The ability of a compound to bind to the human DP2 receptor is assessed via a radioligand binding assay using [^3H]PGD2. HEK293 cells stably expressing recombinant human DP2 are resuspended in 10 mM Hepes, 7.4 containing 1 mM DTT, lysed and centrifuged at 75,000×g to pellet the membranes. The membranes are resuspended in 10 mM Hepes, 7.4 containing 1 mM DTT and 10% glycerol to approximately 5 mg protein/ml. Membranes (2-10 μg protein/well) are incubated in 96-well plates with 1 nM [^3H]PGD2 and test compound in Assay Buffer (50 mM Hepes, 10 mM MnCl2, 1 mM EDTA, plus or minus 0.2% human serum albumin, pH 7.4) for 60 minutes at room temperature. The reactions are terminated by rapid filtration through Whatman GF/C glass fibre filter plates. The filter plates were pre-soaked in 0.33% polythylenimine for 30 minutes at room temperature then washed in Wash Buffer (50 mM Hepes, 0.5 M NaCl pH 7.4) prior to harvesting. After harvesting, the filter plates are washed 3 times with 1 ml cold Wash Buffer then dried. Scintillant is then added to the plates and the radioactivity retained on the filters is determined on a Packard TopCount (Perkin Elmer). Specific binding is determined as total radioactive binding minus non-specific binding in the presence of 10 μM PGD2. IC50s were determined using GraphPad prism analysis of drug titration curves.

SMILES | pIC50 (human DP1 receptor) | pIC50 (human DP2 receptor)
CCN(Cc1cc(C(F)(F)F)ccc1-c1cc(CC(=O)O)ccc1OC)C(=O)OCc1cc(Cl)cc(Cl)c1 [Compound 1-38, (2′-{[(3,5-Dichloro-benzyloxycarbonyl)-ethyl-amino]-methyl}-6-methoxy-4′-trifluoromethyl-biphenyl-3-yl)-acetic acid] | < 6.00 | 
CCN(Cc1cc(C(F)(F)F)ccc1-c1cc(CC(=O)O)ccc1OC)C(=O)NCc1ccccc1O [Compound 1-253, {2′-[1-Ethyl-3-(2-hydroxy-benzyl)-ureidomethyl]-6-methoxy-4′-trifluoromethyl-biphenyl-3-yl}-acetic acid] |  | > 6.52
CCN(Cc1cc(C(F)(F)F)ccc1-c1cc(CC(=O)O)ccc1OC)C(=O)NCc1cc(F)cc(F)c1 [Compound 1-178, {2′-[3-(3,5-Difluoro-benzyl)-1-ethyl-ureidomethyl]-6-methoxy-4′-trifluoromethyl-biphenyl-3-yl}-acetic acid] | < 6.00 | > 6.52
CCN(Cc1cc(C(=O)O)ccc1-c1cc(CC(=O)O)ccc1OC)C(=O)OCc1ccccc1 [Compound 1-226, 2-[(Benzyloxycarbonyl-ethyl-amino)-methyl]-5′-carboxymethyl-2′-methoxy-biphenyl-4-carboxylic acid] |  | > 6.52
CCN(Cc1cc(C(F)(F)F)ccc1-c1cc(CC(=O)O)ccc1OC)C(=O)N[C@@H](C)c1ccc(Cl)cc1 [Compound 1-180, (2′-{3-[(S)-1-(4-Chloro-phenyl)-ethyl]-1-ethyl-ureidomethyl}-6-methoxy-4′-trifluoromethyl-biphenyl-3-yl)-acetic acid] | < 6.00 | > 6.52
CCN(Cc1cc(NS(C)(=O)=O)ccc1-c1cc(CC(=O)O)ccc1OC)C(=O)OCc1ccccc1 [Compound 1-155, {2′-[(Benzyloxycarbonyl-ethyl-amino)-methyl]-4′-methanesulfonylamino-6-methoxy-biphenyl-3-yl}-acetic acid] | < 6.00 | > 6.52
CCN(Cc1cc(NC(C)=O)ccc1-c1cc(CC(=O)O)ccc1OC)C(=O)OCc1ccccc1 [Compound 1-153, {4′-Acetylamino-2′-[(benzyloxycarbonyl-ethyl-amino)-methyl]-6-methoxy-biphenyl-3-yl}-acetic acid] | < 6.00 | > 6.52
CCN(Cc1cc(C(F)(F)F)ccc1-c1cc(CC(=O)O)ccc1OC)C(=O)C1CCC1 [Compound 1-206, {2′-[(Cyclobutanecarbonyl-ethyl-amino)-methyl]-6-methoxy-4′-trifluoromethyl-biphenyl-3-yl}-acetic acid] |  | > 6.52
CCN(Cc1cc(C(F)(F)F)ccc1-c1cc(CC(=O)O)ccc1OC)C(=O)NCc1ccc(F)cc1 [Compound 1-176, {2′-[1-Ethyl-3-(4-fluoro-benzyl)-ureidomethyl]-6-methoxy-4′-trifluoromethyl-biphenyl-3-yl}-acetic acid] | < 6.00 | > 6.52
CCN(Cc1cc(F)ccc1-c1cc(CC(=O)O)ccc1OC)C(=O)OCc1ccccc1 [Compound 1-183, {2′-[(Benzyloxycarbonyl-ethyl-amino)-methyl]-4′-fluoro-6-methoxy-biphenyl-3-yl}-acetic acid] | < 6.00 | > 6.52
CCN(Cc1cc(C(F)(F)F)ccc1-c1cc(CC(=O)O)ccc1OC)C(=O)NCc1cccc(O)c1 [Compound 1-257, {2′-[1-Ethyl-3-(3-hydroxy-benzyl)-ureidomethyl]-6-methoxy-4′-trifluoromethyl-biphenyl-3-yl}-acetic acid] |  | > 6.52
CCN(Cc1cc(C(F)(F)F)ccc1-c1cc(CC(=O)O)ccc1OC)C(=O)OCc1ccccc1 [Compound 1-28, {2′-[(Benzyloxycarbonyl-ethyl-amino)-methyl]-6-methoxy-4′-trifluoromethyl-biphenyl-3-yl}-acetic acid] | < 6.00 | 
CCN(Cc1cc(C(F)(F)F)ccc1-c1cc(CC(=O)O)ccc1OC)C(=O)OCc1ccc(F)cc1 [Compound 1-41, (2′-{[Ethyl-(4-fluoro-benzyloxycarbonyl)-amino]-methyl}-6-methoxy-4′-trifluoromethyl-biphenyl-3-yl)-acetic acid] | < 6.00 | 
CCN(Cc1cc(C(F)(F)F)ccc1-c1cc(CC(=O)O)ccc1OC)C(=O)NCc1ccc(O)cc1 [Compound 1-252, {2′-[1-Ethyl-3-(4-hydroxy-benzyl)-ureidomethyl]-6-methoxy-4′-trifluoromethyl-biphenyl-3-yl}-acetic acid] |  | > 6.52
COc1ccc(CC(=O)O)cc1-c1ccc(C(F)(F)F)cc1CN(C(=O)OCc1ccccc1)C1CCC1 [Compound 1-34, {2′-[(Benzyloxycarbonyl-cyclobutyl-amino)-methyl]-6-methoxy-4′-trifluoromethyl-biphenyl-3-yl}-acetic acid] | < 6.00 | 
CCN(Cc1cc(C(C)(C)O)ccc1-c1cc(CC(=O)O)ccc1OC)C(=O)OCc1ccccc1 [Compound 1-216, [2′-[(Benzyloxycarbonyl-ethyl-amino)-methyl]-4′-(1-hydroxy-1-methyl-ethyl)-6-methoxy-biphenyl-3-yl]-acetic acid] |  | > 6.52
CCN(Cc1cc(S(C)(=O)=O)ccc1-c1cc(CC(=O)O)ccc1OC)C(=O)OCc1ccccc1 [Compound 1-215, {2′-[(Benzyloxycarbonyl-ethyl-amino)-methyl]-4′-methanesulfonyl-6-methoxy-biphenyl-3-yl}-acetic acid] |  | > 6.52
CCN(Cc1cc(SC)ccc1-c1cc(CC(=O)O)ccc1OC)C(=O)C1CC1 [Compound 1-241, {2′-[(Cyclopropanecarbonyl-ethyl-amino)-methyl]-6-methoxy-4′-methylsulfanyl-biphenyl-3-yl}-acetic acid] |  | > 6.52
CCN(Cc1cc(C(F)(F)F)ccc1-c1cc(CC(=O)O)ccc1OC)C(=O)C(C)(C)C [Compound 1-245, (2′-{[(2,2-Dimethyl-propionyl)-ethyl-amino]-methyl}-6-methoxy-4′-trifluoromethyl-biphenyl-3-yl)-acetic acid] |  | < 6.00
CCN(Cc1cc(Br)ccc1-c1cc(CC(=O)O)ccc1OC)C(=O)C1CC1 [Compound 1-247, {4′-Bromo-2′-[(cyclopropanecarbonyl-ethyl-amino)-methyl]-6-methoxy-biphenyl-3-yl}-acetic acid] |  | > 6.52
COc1ccc(CC(=O)O)cc1-c1ccc(C(F)(F)F)cc1CN(C(=O)OCc1ccccc1)C1CC1 [Compound 1-36, {2′-[(Benzyloxycarbonyl-cyclopropyl-amino)-methyl]-6-methoxy-4′-trifluoromethyl-biphenyl-3-yl}-acetic acid] | < 6.00 | 
CCN(Cc1cc(C(F)(F)F)ccc1-c1cccc(CC(=O)O)c1)C(=O)C1CC1 [Compound 1-244, {2′-[(Cyclopropanecarbonyl-ethyl-amino)-methyl]-4′-trifluoromethyl-biphenyl-3-yl}-acetic acid] |  | > 6.52
